# From PubChem BioAssay AID248 (DTP/NCI, 2004)
# Inconclusive results and toxic doses are left out.
# System: L1210 leukemia ip in BDF1 mice, survival T/C
# Test: NCI In Vivo Anticancer Drug Screen. Data for tumor model L1210 Leukemia (intraperitoneal) in B6D2F1 (BDF1) mice
# Details: higher = longer survival
# Outline: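 Survival endpoint. Drug-treated group vs vehicle group, expressed as T divided by C. Tumor passaged by transplantation.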
# [1] = endpoint: mean survival time, dose: 100.0 mg/kg/injection, schedule: Q01DX001 (ip), vehicle: carboxymethylcellulose (CMC)
# [2] = endpoint: mean survival time, dose: 200.0 mg/kg/injection, schedule: Q01DX001 (ip), vehicle: carboxymethylcellulose (CMC)
# [3] = endpoint: mean survival time, dose: 400.0 mg/kg/injection, schedule: Q01DX001 (ip), vehicle: carboxymethylcellulose (CMC)
# [4] = endpoint: mean survival time, dose: 100.0 mg/kg/injection, schedule: Q01DX001 (ip), vehicle: saline
# [5] = endpoint: mean survival time, dose: 200.0 mg/kg/injection, schedule: Q01DX001 (ip), vehicle: saline
# [6] = endpoint: mean survival time, dose: 400.0 mg/kg/injection, schedule: Q01DX001 (ip), vehicle: saline
# [7] = endpoint: mean survival time, dose: 100.0 mg/kg/injection, schedule: Q04DX003 (ip), vehicle: Klucel (hydroxypropylcellulose) (HPC)
# [8] = endpoint: mean survival time, dose: 200.0 mg/kg/injection, schedule: Q04DX003 (ip), vehicle: Klucel (hydroxypropylcellulose) (HPC)
# [9] = endpoint: mean survival time, dose: 400.0 mg/kg/injection, schedule: Q04DX003 (ip), vehicle: Klucel (hydroxypropylcellulose) (HPC)
# [10] = endpoint: mean survival time, dose: 100.0 mg/kg/injection, schedule: Q01DX009 (ip), vehicle: saline with Tween-80
smiles,measurement,setting,value
Oc1ccc2ccccc2c1N=Nc1ccc(F)cc1,T/C,"endpoint: mean survival time, dose: 25.0 mg/kg/injection, schedule: Q01DX015 (ip), vehicle: saline",101 % of control
same,T/C,"endpoint: mean survival time, dose: 50.0 mg/kg/injection, schedule: Q01DX015 (ip), vehicle: saline",96 % of control
same,T/C,"endpoint: mean survival time, dose: 60.0 mg/kg/injection, schedule: Q01DX015 (ip), vehicle: carboxymethylcellulose (CMC)",109 % of control
same,T/C,[1],92 % of control
same,T/C,"endpoint: mean survival time, dose: 100.0 mg/kg/injection, schedule: Q01DX009 (ip), vehicle: carboxymethylcellulose (CMC)",95 % of control
same,T/C,"endpoint: mean survival time, dose: 100.0 mg/kg/injection, schedule: Q01DX015 (ip), vehicle: saline",96 % of control
same,T/C,"endpoint: mean survival time, dose: 100.0 mg/kg/injection, schedule: Q04DX003 (ip), vehicle: carboxymethylcellulose (CMC)",114 % of control
same,T/C,"endpoint: mean survival time, dose: 120.0 mg/kg/injection, schedule: Q01DX015 (ip), vehicle: carboxymethylcellulose (CMC)",104 % of control
same,T/C,[2],92 % of control
same,T/C,"endpoint: mean survival time, dose: 200.0 mg/kg/injection, schedule: Q01DX009 (ip), vehicle: carboxymethylcellulose (CMC)",95 % of control
same,T/C,"endpoint: mean survival time, dose: 200.0 mg/kg/injection, schedule: Q01DX015 (ip), vehicle: saline",101 % of control
same,T/C,"endpoint: mean survival time, dose: 200.0 mg/kg/injection, schedule: Q04DX003 (ip), vehicle: carboxymethylcellulose (CMC)",97 % of control
same,T/C,"endpoint: mean survival time, dose: 240.0 mg/kg/injection, schedule: Q01DX015 (ip), vehicle: carboxymethylcellulose (CMC)",95 % of control
same,T/C,[3],89 % of control
same,T/C,"endpoint: mean survival time, dose: 400.0 mg/kg/injection, schedule: Q01DX015 (ip), vehicle: saline",101 % of control
same,T/C,"endpoint: mean survival time, dose: 400.0 mg/kg/injection, schedule: Q04DX003 (ip), vehicle: carboxymethylcellulose (CMC)",100 % of control
same,T/C,"endpoint: mean survival time, dose: 480.0 mg/kg/injection, schedule: Q01DX015 (ip), vehicle: carboxymethylcellulose (CMC)",96 % of control
Cc1cc(N(C)C)cc(C)c1C(=Nc1ccc(N=C(NO)c2c(C)cc(N(C)C)cc2C)cc1)NO,T/C,[4],97 % of control
same,T/C,[5],109 % of control
CCCCC/C=C\C/C=C/CCCCCCCC1=NC(C)(CO)CO1 (centres undefined),T/C,[4],92 % of control
same,T/C,[5],98 % of control
same,T/C,[6],98 % of control
O=c1cc(NCCc2ccccc2)[nH]c(=O)[nH]1,T/C,"endpoint: mean survival time, dose: 100.0 mg/kg/injection, schedule: Q01DX001 (ip), vehicle: Klucel (hydroxypropylcellulose) (HPC)",93 % of control
same,T/C,"endpoint: mean survival time, dose: 200.0 mg/kg/injection, schedule: Q01DX001 (ip), vehicle: Klucel (hydroxypropylcellulose) (HPC)",95 % of control
same,T/C,"endpoint: mean survival time, dose: 400.0 mg/kg/injection, schedule: Q01DX001 (ip), vehicle: Klucel (hydroxypropylcellulose) (HPC)",105 % of control
CC(=O)c1ccc2[nH]c(C)cc(=O)c2c1,T/C,[4],94 % of control
same,T/C,[5],107 % of control
same,T/C,[6],96 % of control
Nc1cc(C(F)(F)F)ccc1Cl,T/C,"endpoint: mean survival time, dose: 100.0 mg/kg/injection, schedule: Q04DX003 (ip), vehicle: alcohol",100 % of control
same,T/C,"endpoint: mean survival time, dose: 200.0 mg/kg/injection, schedule: Q04DX003 (ip), vehicle: alcohol",96 % of control
same,T/C,"endpoint: mean survival time, dose: 400.0 mg/kg/injection, schedule: Q04DX003 (ip), vehicle: alcohol",97 % of control
C=CCN1CCC(C(=O)CC)(c2ccccc2)CC1,T/C,"endpoint: mean survival time, dose: 12.5 mg/kg/injection, schedule: Q01DX009 (ip), vehicle: Klucel (hydroxypropylcellulose) (HPC)",100 % of control
same,T/C,"endpoint: mean survival time, dose: 25.0 mg/kg/injection, schedule: Q01DX009 (ip), vehicle: Klucel (hydroxypropylcellulose) (HPC)",98 % of control
same,T/C,"endpoint: mean survival time, dose: 50.0 mg/kg/injection, schedule: Q01DX009 (ip), vehicle: Klucel (hydroxypropylcellulose) (HPC)",106 % of control
ClCC1COC(Cc2ccccc2)O1 (centres undefined),T/C,"endpoint: mean survival time, dose: 222.0 mg/kg/injection, schedule: Q01DX Z (ip), vehicle: saline",97 % of control
same,T/C,"endpoint: mean survival time, dose: 333.0 mg/kg/injection, schedule: Q01DX Z (ip), vehicle: saline",97 % of control
same,T/C,"endpoint: mean survival time, dose: 500.0 mg/kg/injection, schedule: Q01DX Z (ip), vehicle: saline",103 % of control
Cc1c(Cl)cccc1NS(=O)(=O)c1ccc(Cl)cc1,T/C,"endpoint: mean survival time, dose: 100.0 mg/kg/injection, schedule: Q01DX009 (ip), vehicle: Klucel (hydroxypropylcellulose) (HPC)",117 % of control
same,T/C,[7],102 % of control
same,T/C,"endpoint: mean survival time, dose: 200.0 mg/kg/injection, schedule: Q01DX009 (ip), vehicle: Klucel (hydroxypropylcellulose) (HPC)",111 % of control
same,T/C,[8],119 % of control
same,T/C,"endpoint: mean survival time, dose: 400.0 mg/kg/injection, schedule: Q01DX009 (ip), vehicle: Klucel (hydroxypropylcellulose) (HPC)",101 % of control
same,T/C,[9],110 % of control
O=C(COc1ccc([N+](=O)[O-])cc1)OCCN1CCOCC1,T/C,[1],92 % of control
same,T/C,[2],111 % of control
same,T/C,[3],101 % of control
CCCCCCCCC/C=C(\CCCCCCCCCC)c1cc(C)ccc1C,T/C,"endpoint: mean survival time, dose: 12.5 mg/kg/injection, schedule: Q04DX002 (ip), vehicle: saline with Tween-80",94 % of control
CC1C2CC(C3(C)OCCO3)CCC2(C)CCC12OCCO2 (centres undefined),T/C,[7],101 % of control
same,T/C,[8],106 % of control
same,T/C,[9],106 % of control
NC(=O)c1[nH]cnc1/N=N/N(CCO)Cc1ccccc1,T/C,"endpoint: mean survival time, dose: 50.0 mg/kg/injection, schedule: Q01DX001 (ip), vehicle: water",98 % of control
same,T/C,"endpoint: mean survival time, dose: 50.0 mg/kg/injection, schedule: Q04DX003 (ip), vehicle: water",105 % of control
same,T/C,"endpoint: mean survival time, dose: 100.0 mg/kg/injection, schedule: Q01DX001 (ip), vehicle: water",96 % of control
same,T/C,[10],98 % of control
same,T/C,"endpoint: mean survival time, dose: 100.0 mg/kg/injection, schedule: Q04DX003 (ip), vehicle: water",105 % of control
same,T/C,"endpoint: mean survival time, dose: 200.0 mg/kg/injection, schedule: Q01DX001 (ip), vehicle: water",98 % of control
same,T/C,"endpoint: mean survival time, dose: 200.0 mg/kg/injection, schedule: Q01DX009 (ip), vehicle: saline with Tween-80",102 % of control
same,T/C,"endpoint: mean survival time, dose: 200.0 mg/kg/injection, schedule: Q04DX003 (ip), vehicle: water",101 % of control
same,T/C,"endpoint: mean survival time, dose: 400.0 mg/kg/injection, schedule: Q01DX001 (ip), vehicle: water",101 % of control
same,T/C,"endpoint: mean survival time, dose: 400.0 mg/kg/injection, schedule: Q01DX009 (ip), vehicle: saline with Tween-80",95 % of control
same,T/C,"endpoint: mean survival time, dose: 400.0 mg/kg/injection, schedule: Q04DX003 (ip), vehicle: water",97 % of control
COC1C(O)C(C)OC(OC2C(Oc3cccc4c(O)c5c(=O)oc6ccc(C)c7c(=O)oc(c34)c5c67)OC(C)C(O)C2O)C1O (centres undefined),T/C,"endpoint: mean survival time, dose: 1.25 mg/kg/injection, schedule: Q01DX009 (ip), vehicle: saline with Tween-80",97 % of control
same,T/C,"endpoint: mean survival time, dose: 2.5 mg/kg/injection, schedule: Q01DX009 (ip), vehicle: saline with Tween-80",123 % of control
same,T/C,"endpoint: mean survival time, dose: 5.0 mg/kg/injection, schedule: Q01DX009 (ip), vehicle: saline with Tween-80",115 % of control
same,T/C,"endpoint: mean survival time, dose: 12.5 mg/kg/injection, schedule: Q01DX009 (ip), vehicle: carboxymethylcellulose (CMC)",108 % of control
same,T/C,"endpoint: mean survival time, dose: 20.0 mg/kg/injection, schedule: Q01DX009 (ip), vehicle: saline with Tween-80",166 % of control
same,T/C,"endpoint: mean survival time, dose: 25.0 mg/kg/injection, schedule: Q01DX009 (ip), vehicle: carboxymethylcellulose (CMC)",108 % of control
same,T/C,"endpoint: mean survival time, dose: 50.0 mg/kg/injection, schedule: Q01DX009 (ip), vehicle: carboxymethylcellulose (CMC)",117 % of control
same,T/C,[10],121 % of control
same,T/C,"endpoint: median survival time, dose: 8.0 mg/kg/injection, schedule: Q04DX003 (ip), vehicle: saline with Tween-80",106 % of control
same,T/C,"endpoint: median survival time, dose: 16.0 mg/kg/injection, schedule: Q04DX003 (ip), vehicle: saline with Tween-80",110 % of control
same,T/C,"endpoint: median survival time, dose: 32.0 mg/kg/injection, schedule: Q04DX003 (ip), vehicle: saline with Tween-80",114 % of control
same,T/C,"endpoint: median survival time, dose: 64.0 mg/kg/injection, schedule: Q04DX003 (ip), vehicle: saline with Tween-80",114 % of control
same,T/C,"endpoint: median survival time, dose: 128.0 mg/kg/injection, schedule: Q04DX003 (ip), vehicle: saline with Tween-80",110 % of control
CCCCCCCCCCCC[N+](C)(C)Cc1ccccc1 (tested in a mixture with another compound),T/C,"endpoint: mean survival time, dose: 2.0 mg/kg/injection, schedule: Q01DX015 (ip), vehicle: saline",105 % of control
same,T/C,"endpoint: mean survival time, dose: 4.0 mg/kg/injection, schedule: Q01DX015 (ip), vehicle: saline",94 % of control
same,T/C,"endpoint: mean survival time, dose: 8.0 mg/kg/injection, schedule: Q01DX015 (ip), vehicle: saline",103 % of control
O=C(CN1C(=O)c2ccccc2C1=O)NCC(=O)Nc1ccccc1,T/C,"endpoint: mean survival time, dose: 50.0 mg/kg/injection, schedule: Q01DX001 (ip), vehicle: saline",93 % of control
same,T/C,[4],98 % of control
same,T/C,[5],104 % of control
same,T/C,[6],93 % of control
CC(C)C1CC=CCC12C(=O)NC(=O)NC2=O (centres undefined),T/C,"endpoint: mean survival time, dose: 75.0 mg/kg/injection, schedule: Q01DX001 (ip), vehicle: other",104 % of control
same,T/C,"endpoint: mean survival time, dose: 150.0 mg/kg/injection, schedule: Q01DX001 (ip), vehicle: other",97 % of control
same,T/C,"endpoint: mean survival time, dose: 300.0 mg/kg/injection, schedule: Q01DX001 (ip), vehicle: other",93 % of control
